Columns and labels:
[1] = molecular target: T1, BAZ2A bromodomain (Homo sapiens, UniProt Q9UIF9); assay: AlphaScreen competition binding assay (BAZ2A bromodomain binding to acetylated peptide); conditions: for IC50: AlphaScreen dose-response; for remaining binding at 500 µM: single dose, compound concentration 500 μM, read-out: % residual BAZ2A activity; for decrease of binding of BAZ2A bromodomain to the acetylated peptide: tested at 500 μM, single dose in duplicate
T1 construct: made in house
T1 sequence (Q9UIF9 1793-1897 limits assumed): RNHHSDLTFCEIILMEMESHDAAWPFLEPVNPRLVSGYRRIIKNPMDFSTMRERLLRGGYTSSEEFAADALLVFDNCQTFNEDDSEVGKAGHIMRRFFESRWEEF
Protocol: The 36 selected molecules were tested by AlphaScreen at single doses in duplicate. Six molecules (compounds 8, 9, 11, 14, 18, and 25) decreased binding of BAZ2A bromodomain to the acetylated peptide by at least 50% when tested at 500 μM. […]
AlphaScreen assay was conducted as detailed in [11]. […]

[2] = molecular target: T1, BAZ2A bromodomain; assay: as above; conditions: single dose 100 μM; IC50 not determined; read-out: Residual activity when tested in single dose
[3] = tested on: BAZ2A; design: method as in PMID 25799074, PMID 25719566; conditions: cited from earlier work

| SMILES | IC50 [1] | other results |
| --- | --- | --- |
| CCc1c(-c2csc(NC3CCNCC3)n2)[nH]c(C)c1C(C)=O [Compound 62] | 53.9 ± 0.2 µM | – |
| CCc1c(-c2csc(Cc3ccc(N)cc3)n2)[nH]c(C)c1C(C)=O [Compound 60] | > 100 µM | – |
| CCc1c(-c2csc(-c3cnc[nH]3)n2)[nH]c(C)c1C(C)=O [Compound 72] | 54.6 ± 7.1 µM | – |
| CCc1c(-c2csc(N=C(N)N)n2)[nH]c(C)c1C(C)=O [Compound 25] | 33.2 ± 0.3 µM | ligand efficiency (LE) [1]: 0.31 kcal/mol per heavy atom; lipophilic ligand efficiency (LLE) [1]: 2.4; remaining binding at 500 µM [1]: 5 ± 0.6%; decrease of binding of BAZ2A bromodomain to the acetylated peptide [1]: at least 50% |
| CCc1c(-c2csc(C3CCNC3)n2)[nH]c(C)c1C(C)=O (centres unmarked) [Compound 53] | 54 ± 0.2 µM | – |
| Cc1c[nH]nc1CN1CCN(c2nc(-c3[nH]c(C)c4c3CCCC4=O)cs2)CC1 [Compound 98] | 12.6 ± 1.4 µM | – |
| CCc1c(-c2csc(C3(N)CCCC3)n2)[nH]c(C)c1C(C)=O [Compound 66] | 99.7 ± 10.9 µM | – |
| NCc1ccc(N2CCNC(=O)C2)cc1 [Compound 14] | > 200 µM | remaining binding at 500 µM [1]: 32 ± 4%; decrease of binding of BAZ2A bromodomain to the acetylated peptide [1]: at least 50% |
| CCc1c(-c2csc(N3CCNCC3C(=O)NCC(F)(F)F)n2)[nH]c(C)c1C(C)=O (centres unmarked) [Compound 107] | 14.1 ± 0.2 µM | – |
| Cc1[nH]c(-c2csc(NC(=N)N)n2)c2c1C(=O)CC(C)(C)C2 [Compound 84] | 29.2 ± 0.3 µM | – |
| CCc1c(-c2csc(N3CCN(Cc4cc5n(n4)CCC5)CC3)n2)[nH]c(C)c1C(C)=O [Compound 86] | > 100 µM | – |
| CCc1c(-c2csc(C3CCCN3C(C)=O)n2)[nH]c(C)c1C(C)=O (centres unmarked) [Compound 57] | 93.2 ± 10.1 µM | – |
| Cc1[nH]c(-c2csc(N3CCN(Cc4c[nH]c5ncncc45)CC3)n2)c2c1C(=O)CCC2 [Compound 99] | 10.9 ± 0.2 µM | – |
| CCc1c(-c2csc(C3CCCN3C(N)=O)n2)[nH]c(C)c1C(C)=O (centres unmarked) [Compound 58] | > 100 µM | – |
| CCc1c(-c2csc(N3CCN(CC4CCN(CC)CC4)CC3)n2)[nH]c(C)c1C(C)=O [Compound 87] | 46.6 ± 2.5 µM | – |
| CCc1c(-c2csc(N3CCNCC3C(=O)NCCC(F)(F)F)n2)[nH]c(C)c1C(C)=O (centres unmarked) [Compound 111] | 11 ± 0.2 µM | – |
| Cc1[nH]c(-c2csc(NC(=N)N)n2)c2c1C(=O)CCC2 [Compound 83] | 11 ± 0.2 µM | – |
| CCc1c(-c2csc(N3CCN(Cc4ccsc4S(N)(=O)=O)CC3)n2)[nH]c(C)c1C(C)=O [Compound 90] | – | remaining binding at 100 µM [2]: > 50% |
| C/N=C(/NC)NC1CCN(c2cc(OC)cc(OC)c2)CC1 [Compound 11] | > 200 µM | remaining binding at 500 µM [1]: 48 ± 5%; decrease of binding of BAZ2A bromodomain to the acetylated peptide [1]: at least 50% |
| CCc1c(-c2csc(N3CCN(Cc4conc4COC)CC3)n2)[nH]c(C)c1C(C)=O [Compound 96] | 85.1 ± 6.8 µM | – |
| NC1CCN(C(=O)c2ccc(=O)[nH]c2)CC1 [Compound 36] | – | remaining binding at 500 µM [1]: 71 ± 3% |
| CCc1c(-c2csc(N3CCN(Cc4ccnn4CC(C)C)CC3)n2)[nH]c(C)c1C(C)=O [Compound 97] | 49.3 ± 5.7 µM | – |
| CCc1c(-c2csc(C3CCN(C(C)=O)C3)n2)[nH]c(C)c1C(C)=O (centres unmarked) [Compound 55] | 114 ± 22.1 µM | – |
| CCc1c(-c2csc(N3CCNCC3C(=O)NCCc3cc4ccccc4[nH]3)n2)[nH]c(C)c1C(C)=O (centres unmarked) [Compound 105] | 33.2 ± 0.3 µM | – |
| CCc1c(-c2csc(CN3CCC(N)CC3)n2)[nH]c(C)c1C(C)=O [Compound 63] | 60.5 ± 9.4 µM | – |

| SMILES | IC50 [1] | other results |
| --- | --- | --- |
| O=S(=O)(NC1CCNC1)c1cccc2cnccc12 (centres unmarked) [Compound 9] | > 200 µM | remaining binding at 500 µM [1]: 44 ± 3%; decrease of binding of BAZ2A bromodomain to the acetylated peptide [1]: at least 50% |
| CCc1c(-c2csc(N3CCN(Cc4cnn5c4OCCC5)CC3)n2)[nH]c(C)c1C(C)=O [Compound 89] | – | remaining binding at 100 µM [2]: > 50% |
| CCc1c(-c2csc(N)n2)[nH]c(C)c1C(C)=O [Compound 43] | 76.2 ± 8.6 µM | – |
| CCc1c(-c2csc(N3CCNCC3C(=O)NCCCCO)n2)[nH]c(C)c1C(C)=O (centres unmarked) [Compound 109] | 31.3 ± 0.7 µM | – |
| CCc1c(-c2csc(CN3CCNCC3)n2)[nH]c(C)c1C(C)=O [Compound 61] | 54 ± 0.2 µM | – |
| CCc1c(-c2csc(N3CCNCC3C(=O)NCC(N)=O)n2)[nH]c(C)c1C(C)=O (centres unmarked) [Compound 110] | 22 ± 2.3 µM | – |
| NC(=O)c1cc(OC2CCNCC2)ccn1 [Compound 13] | – | remaining binding at 500 µM [1]: 75 ± 2% |
| CCc1c(-c2csc(CCNC)n2)[nH]c(C)c1C(C)=O [Compound 45] | 109 ± 12.3 µM | – |
| CCc1c(-c2csc(N3CCNCC3C(=O)NC3(c4ncccc4F)CC3)n2)[nH]c(C)c1C(C)=O (centres unmarked) [Compound 100] | 36.5 ± 4.1 µM | – |
| CCc1c(-c2csc(N3CCNCC3)n2)[nH]c(C)c1C(N)=O [Compound 74] | > 100 µM | – |
| CCc1c(-c2csc(N3CCNCC3C(=O)NCC3CC4(CCC4)C3)n2)[nH]c(C)c1C(C)=O (centres unmarked) [Compound 106] | – | remaining binding at 100 µM [2]: > 50% |
| Cc1[nH]c(-c2csc(N3CCNCC3)n2)c2c1C(=O)CCC2(C)C [Compound 82] | 44.6 ± 5.6 µM | – |
| CC(=O)c1c(C)[nH]c(-c2csc(CN3C(=O)CNC3=O)n2)c1C [Compound 65] | 54 ± 0.3 µM | – |
| Cc1[nH]c(-c2csc(N3CCNCC3)n2)c2c1C(=O)CC(C)(C)C2 [Compound 81] | 11.8 ± 0.3 µM | – |
| CCc1c(-c2csc(C3COCCN3)n2)[nH]c(C)c1C(C)=O (centres unmarked) [Compound 52] | 93.5 ± 9.7 µM | – |
| CCc1c(-c2csc(N3CCN(Cc4cn(CC(N)=O)nn4)CC3)n2)[nH]c(C)c1C(C)=O [Compound 88] | 42.9 ± 4.6 µM | – |
| CC(=O)c1c(C)[nH]c(-c2csc(N3CCNCC3)n2)c1CCC(F)(F)F [Compound 77] | 38.9 ± 2 µM | – |
| CC(=O)N1CCN(c2ccc(NC(=N)N)cc2)CC1 [Compound 18] | > 200 µM | remaining binding at 500 µM [1]: 37 ± 4%; decrease of binding of BAZ2A bromodomain to the acetylated peptide [1]: at least 50% |
| CCc1c(-c2csc(N3CCN(Cc4cnc(N)nc4)CC3)n2)[nH]c(C)c1C(C)=O [Compound 94] | – | remaining binding at 100 µM [2]: > 50% |
| CCc1c(-c2csc(CN3CCN(C(C)=O)CC3)n2)[nH]c(C)c1C(C)=O [Compound 64] | 75.7 ± 9.2 µM | – |
| CCc1c(-c2csc(C3CCCCN3)n2)[nH]c(C)c1C(C)=O (centres unmarked) [Compound 50] | 76.8 ± 6.4 µM | – |
| CC(=O)c1c(C)[nH]c(-c2csc(N3CCNCC3)n2)c1CCC(C)C [Compound 79] | 12.5 ± 0.4 µM | – |
| CCc1c(-c2csc(N3CCN(Cc4c[nH]c(=O)[nH]c4=O)CC3)n2)[nH]c(C)c1C(C)=O [Compound 93] | – | remaining binding at 100 µM [2]: > 50% |
| CCc1c(-c2csc(N3CCNCC3C(=O)NC3CCC(C(N)=O)CC3)n2)[nH]c(C)c1C(C)=O (centres unmarked) [Compound 103] | – | remaining binding at 100 µM [2]: > 50% |
| Cc1[nH]c(-c2csc(N3CCNCC3)n2)c2c1C(=O)CCC2 [Compound 80] | 11.4 ± 0.3 µM | – |

| SMILES | IC50 [1] | other results |
| --- | --- | --- |
| CCc1c(-c2csc(N3CCNCC3C(=O)NCC(C)(C)CC)n2)[nH]c(C)c1C(C)=O (centres unmarked) [Compound 108] | 35.1 ± 0.2 µM | – |
| CCc1c(-c2csc(CN3CCOCC3)n2)[nH]c(C)c1C(C)=O [Compound 59] | 74.2 ± 9.1 µM | – |
| CCc1c(-c2csc(C3CCCNC3)n2)[nH]c(C)c1C(C)=O (centres unmarked) [Compound 49] | 47 ± 5 µM | – |
| NC1CCCN(S(=O)(=O)c2cccc3cnccc23)C1 (centres unmarked) [Compound 8] | > 200 µM | remaining binding at 500 µM [1]: 49 ± 7%; decrease of binding of BAZ2A bromodomain to the acetylated peptide [1]: at least 50% |
| CCc1c(-c2csc(N3CCNCC3C(=O)NCc3ncoc3C(C)C)n2)[nH]c(C)c1C(C)=O (centres unmarked) [Compound 101] | – | remaining binding at 100 µM [2]: > 50% |
| CCc1c(-c2csc(C3CCN(C(N)=O)C3)n2)[nH]c(C)c1C(C)=O (centres unmarked) [Compound 56] | > 100 µM | – |
| CCc1c(-c2csc(N3CCN(Cc4c[nH]c5ncncc45)CC3)n2)[nH]c(C)c1C(C)=O [Compound 95] | 12.9 ± 2 µM | – |
| CC(=O)c1c(C)[nH]c(-c2csc(N3CCNCC3)n2)c1-c1ccnn1C [Compound 76] | – | remaining binding at 100 µM [2]: > 50% |
| CCCOc1ccn2c(C(C)=O)cc(-c3ccccc3S(C)(=O)=O)c2c1 [GSK2801] | – | affinity for BAZ2A (in words) [3]: very high nanomolar range |
| CCc1c(-c2csc(N3CCNCC3C(=O)NC(CO)CO)n2)[nH]c(C)c1C(C)=O (centres unmarked) [Compound 112] | 42 ± 5.2 µM | – |
| CCc1c(-c2csc(N3CCNCC3C(=O)NC3(Cc4ccccc4Br)CC3)n2)[nH]c(C)c1C(C)=O (centres unmarked) [Compound 102] | 10.6 ± 0.2 µM | – |
| CCc1c(-c2csc(N3CCNCC3C(=O)NCC3CC(C)C3)n2)[nH]c(C)c1C(C)=O (centres unmarked) [Compound 114] | – | remaining binding at 100 µM [2]: > 50% |
| Cn1cc(CCn2cnc(-c3cnn(C)c3)c2-c2ccc(C#N)cc2)cn1 [BAZ2-ICR] | – | affinity for BAZ2A (in words) [3]: very high nanomolar range |
| CCc1c(-c2csc(N3CCN(Cc4n[nH]cc4C)CC3)n2)[nH]c(C)c1C(C)=O [Compound 92] | 13.1 ± 0.9 µM | – |
| CCc1c(-c2csc(N3CCNCC3C(=O)NCC(C)(C)C)n2)[nH]c(C)c1C(C)=O (centres unmarked) [Compound 113] | 14 ± 0.3 µM | – |
| CCc1c(-c2csc(C3(NC(C)=O)CCNC3)n2)[nH]c(C)c1C(C)=O (centres unmarked) [Compound 54] | 61.3 ± 10.6 µM | – |
| CCCNC(=O)c1c(C)[nH]c(-c2csc(N3CCNCC3)n2)c1CC [Compound 75] | – | remaining binding at 100 µM [2]: > 50% |
| CC(=O)c1c(C)[nH]c(-c2csc(N3CCNCC3)n2)c1C1CCCC1 [Compound 78] | 40.1 ± 3.4 µM | – |
| CCc1c(-c2csc(CCCN)n2)[nH]c(C)c1C(C)=O [Compound 44] | 57.9 ± 6 µM | – |
| CCc1c(-c2csc(C3CCNCC3)n2)[nH]c(C)c1C(C)=O [Compound 48] | 94.6 ± 11.7 µM | – |
| Cc1[nH]c(-c2csc(-c3cc[nH]n3)n2)c2c1C(=O)CCC2 [Compound 69] | 74.3 ± 4.7 µM | – |
| CCc1c(-c2csc(N3CCN(Cc4cc(S(N)(=O)=O)co4)CC3)n2)[nH]c(C)c1C(C)=O [Compound 91] | – | remaining binding at 100 µM [2]: > 50% |
| CCc1c(-c2csc(N3CCNCC3)n2)[nH]c(C)c1C(C)=O [Compound 47] | 33.3 ± 0.4 µM | ligand efficiency (LE) [1]: 0.29 kcal/mol per heavy atom; lipophilic ligand efficiency (LLE) [1]: 1.9 |

Source: article PMC9465710, “Identification of a BAZ2A-Bromodomain Hit Compound by Fragment Growing” (ACS Medicinal Chemistry Letters, 2022)
